From patent US20180370927A1, “MICROBIOCIDAL OXADIAZOLE DERIVATIVES” (SYNGENTA PARTICIPATIONS AG, priority 2015, published 2018)

Legend:
Phakopsora pachyrhizi = Phakopsora pachyrhizi / soybean / leaf disc preventative (Asian soybean rust); type: in vivo; conditions: foliar, 200 ppm in the applied formulation, soybean leaf disks, assessed 12 to 14 days after application, read-out: disease control compared to untreated control leaf disks
Protocol: Leaf disks or leaf segments of various plant species are cut from plants grown in a greenhouse. The cut leaf disks or segments are placed in multiwell plates (24-well format) onto water agar. The leaf disks are sprayed with a test solution before (preventative) or after (curative) inoculation. Compounds to be tested are prepared as DMSO solutions (max. 10 mg/mL) which are diluted to the appropriate concentration with 0.025% Tween20 just before spraying. The inoculated leaf disks or segments are incubated under defined conditions (temperature, relative humidity, light, etc.) according to the respective test system. A single evaluation of disease level is carried out 3 to 14 days after inoculation, depending on the pathosystem. Percent disease control relative to the untreated check leaf disks or segments is then calculated.
Example 3: Fungicidal Activity Against Phakopsora pachyrhizi/Soybean/Leaf Disc Preventative (Asian Soybean Rust)
Soybean leaf disks are placed on water agar in multiwell plates (24-well format) and sprayed with the formulated test compound diluted in water. One day after application leaf discs are inoculated by spraying a spore suspension on the lower leaf surface. After an incubation period in a climate cabinet of 24-36 hours in darkness at 20° C. and 75% relative humidity leaf disc are kept at 20° C. with 12 hours light/day and 75% relative humidity. The activity of a compound is assessed as percent disease control compared to untreated when an appropriate level of disease damage appears in untreated check leaf disks (12 to 14 days after application).
The following compounds at 200 ppm in the applied formulation give at least 80% disease control in this test when compared to untreated control leaf disks under the same conditions, which show extensive disease development.

[1] = tested on: Puccinia recondita f. Sp. Tritici; experiment: Puccinia recondita f. sp. tritici / wheat / leaf disc curative (brown rust); type: in vivo; conditions: foliar, 200 ppm in the applied formulation, wheat leaf segments, curative (applied 1 day after inoculation), assessed 6 to 8 days after application, read-out: disease control compared to untreated control leaf disks
Summary of the method: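 Wheat cv. Kanzler leaf segments on agar were inoculated with spores, kept dark at 19° C, 75% RH, then sprayed with diluted formulated compound 1 day after inoculation (curative). Incubation continued at 19° C, 75% RH, 12 h light/12 h dark, with percent disease control versus untreated scored 6 to 8 days after application.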

[2] = tested on: Glomerella lacenarium (Colletotrichum lacenarium); experiment: Glomerella lacenarium (Colletotrichum lacenarium) liquid culture / cucumber / preventative (anthracnose); type: cell-based; conditions: 20 ppm in the applied formulation, liquid culture in PDB, 24° C., 3 to 4 days after application, read-out: disease control (inhibition of growth, photometric) compared to untreated control
Summary of the method: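 Cryostored conidia in potato dextrose broth added to DMSO compound solution in microtiter plates, incubated at 24° C. Growth inhibition read photometrically 3 to 4 days after application, as percent control versus untreated check; compounds tested at 20 ppm.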

[3] = tested on: Puccinia recondita f. Sp. Tritici; experiment: Puccinia recondita f. sp. tritici / wheat / leaf disc preventative (brown rust); type: in vivo; conditions: foliar, 200 ppm in the applied formulation, wheat leaf segments, preventative, assessed 7 to 9 days after application, read-out: disease control compared to untreated control leaf disks
Summary of the method: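 Wheat cv. Kanzler leaf segments on agar sprayed with formulated compound in water, inoculated with rust spores 1 day later. Incubated at 19° C, 75% rh, 12 h light/12 h dark; percent disease control versus untreated scored 7 to 9 days after application; tested at 200 ppm.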

CC(C)(C)C(=O)C(=O)NCc1ccc(-c2noc(C(F)(F)F)n2)cc1F [Compound 1.40, N-[[2-fluoro-4-[5-(trifluoromethyl)-1,2,4-oxadiazol-3-yl]phenyl]methyl]-3,3-dimethyl-2-oxo-butanamide]
≥ 80%: pest or weed control at 200 ppm (Phakopsora pachyrhizi) | pest or weed control at 200 ppm [1] | inhibition at 20 ppm [2] | pest or weed control at 200 ppm [3]

CCC(=O)C(=O)NCc1ccc(-c2noc(C(F)(F)F)n2)cc1F [Compound 1.41, N-[[2-fluoro-4-[5-(trifluoromethyl)-1,2,4-oxadiazol-3-yl]phenyl]methyl]-2-oxo-butanamide]
≥ 80%: pest or weed control at 200 ppm (Phakopsora pachyrhizi) | pest or weed control at 200 ppm [1] | inhibition at 20 ppm [2] | pest or weed control at 200 ppm [3]

CC(C)CC(=O)C(=O)NCc1ccc(-c2noc(C(F)(F)F)n2)c(F)c1 [Compound 1.43, N-[[3-fluoro-4-[5-(trifluoromethyl)-1,2,4-oxadiazol-3-yl]phenyl]methyl]-4-methyl-2-oxo-pentanamide]
≥ 80%: pest or weed control at 200 ppm (Phakopsora pachyrhizi) | pest or weed control at 200 ppm [1] | inhibition at 20 ppm [2] | pest or weed control at 200 ppm [3]

O=C(NCc1ccc(-c2noc(C(F)(F)F)n2)c(F)c1)C(=O)c1cccs1 [Compound 1.44, N-[[3-fluoro-4-[5-(trifluoromethyl)-1,2,4-oxadiazol-3-yl]phenyl]methyl]-2-oxo-2-(2-thienyl)acetamide]
≥ 80%: pest or weed control at 200 ppm (Phakopsora pachyrhizi) | pest or weed control at 200 ppm [1] | inhibition at 20 ppm [2] | pest or weed control at 200 ppm [3]

CC(C)(C)C(=O)C(=O)NCc1ccc(-c2noc(C(F)(F)F)n2)c(F)c1 [Compound 1.45, N-[[3-fluoro-4-[5-(trifluoromethyl)-1,2,4-oxadiazol-3-yl]phenyl]methyl]-3,3-dimethyl-2-oxo-butanamide]
≥ 80%: pest or weed control at 200 ppm (Phakopsora pachyrhizi) | pest or weed control at 200 ppm [1] | inhibition at 20 ppm [2] | pest or weed control at 200 ppm [3]

CC(C)CC(=O)C(=O)NCc1ccc(-c2noc(C(F)(F)F)n2)c(F)c1F [Compound 1.47, N-[[2,3-difluoro-4-[5-(trifluoromethyl)-1,2,4-oxadiazol-3-yl]phenyl]methyl]-4-methyl-2-oxo-pentanamide]
≥ 80%: pest or weed control at 200 ppm (Phakopsora pachyrhizi) | pest or weed control at 200 ppm [1] | inhibition at 20 ppm [2] | pest or weed control at 200 ppm [3]

CC(C)(C)C(=O)C(=O)NCc1ccc(-c2noc(C(F)(F)F)n2)c(F)c1F [Compound 1.49, N-[[2,3-difluoro-4-[5-(trifluoromethyl)-1,2,4-oxadiazol-3-yl]phenyl]methyl]-3,3-dimethyl-2-oxo-butanamide]
≥ 80%: pest or weed control at 200 ppm (Phakopsora pachyrhizi) | pest or weed control at 200 ppm [1] | inhibition at 20 ppm [2] | pest or weed control at 200 ppm [3]

CC(C)CC(=O)C(=O)NCc1ccc(-c2noc(C(F)(F)F)n2)cc1 [Compound 1.50, 4-methyl-2-oxo-N-[[4-[5-(trifluoromethyl)-1,2,4-oxadiazol-3-yl]phenyl]methyl]pentanamide]
≥ 80%: pest or weed control at 200 ppm (Phakopsora pachyrhizi) | pest or weed control at 200 ppm [1] | inhibition at 20 ppm [2] | pest or weed control at 200 ppm [3]

O=C(NCc1ccc(-c2noc(C(F)(F)F)n2)cc1)C(=O)c1cccs1 [Compound 1.51, 2-oxo-2-(2-thienyl)-N-[[4-[5-(trifluoromethyl)-1,2,4-oxadiazol-3-yl]phenyl]methyl]acetamide]
≥ 80%: pest or weed control at 200 ppm (Phakopsora pachyrhizi) | pest or weed control at 200 ppm [1] | inhibition at 20 ppm [2] | pest or weed control at 200 ppm [3]

CC(C)(C)C(=O)C(=O)NCc1ccc(-c2noc(C(F)(F)F)n2)cc1 [Compound 1.52, 3,3-dimethyl-2-oxo-N-[[4-[5-(trifluoromethyl)-1,2,4-oxadiazol-3-yl]phenyl]methyl]butanamide]
≥ 80%: pest or weed control at 200 ppm (Phakopsora pachyrhizi) | pest or weed control at 200 ppm [1] | inhibition at 20 ppm [2] | pest or weed control at 200 ppm [3]

CCC(=O)C(=O)NCc1ccc(-c2noc(C(F)(F)F)n2)cc1 [Compound 1.53, 2-oxo-N-[[4-[5-(trifluoromethyl)-1,2,4-oxadiazol-3-yl]phenyl]methyl]butanamide]
≥ 80%: pest or weed control at 200 ppm (Phakopsora pachyrhizi) | pest or weed control at 200 ppm [1] | inhibition at 20 ppm [2] | pest or weed control at 200 ppm [3]

CON(Cc1ccc(-c2noc(C(F)(F)F)n2)cc1F)C(=O)C(=O)CC(C)C [Compound 1.55, N-[[2-fluoro-4-[5-(trifluoromethyl)-1,2,4-oxadiazol-3-yl]phenyl]methyl]-N-methoxy-4-methyl-2-oxo-pentanamide]
≥ 80%: pest or weed control at 200 ppm (Phakopsora pachyrhizi) | pest or weed control at 200 ppm [1] | inhibition at 20 ppm [2] | pest or weed control at 200 ppm [3]

CCC(=O)C(=O)N(Cc1ccc(-c2noc(C(F)(F)F)n2)cc1F)OC [Compound 1.58, N-[[2-fluoro-4-[5-(trifluoromethyl)-1,2,4-oxadiazol-3-yl]phenyl]methyl]-N-methoxy-2-oxo-butanamide]
≥ 80%: pest or weed control at 200 ppm (Phakopsora pachyrhizi) | pest or weed control at 200 ppm [1] | inhibition at 20 ppm [2] | pest or weed control at 200 ppm [3]

CCC(=O)C(=O)NCc1ccc(-c2noc(C(F)(F)F)n2)cc1Cl [Compound 1.64, N-[[2-chloro-4-[5-(trifluoromethyl)-1,2,4-oxadiazol-3-yl]phenyl]methyl]-2-oxo-butanamide]
≥ 80%: pest or weed control at 200 ppm (Phakopsora pachyrhizi) | pest or weed control at 200 ppm [1] | inhibition at 20 ppm [2] | pest or weed control at 200 ppm [3]

O=C(NCc1c(F)cc(-c2noc(C(F)(F)F)n2)cc1F)C(=O)c1cccs1 [Compound 1.70, N-[[2,6-difluoro-4-[5-(trifluoromethyl)-1,2,4-oxadiazol-3-yl]phenyl]methyl]-2-oxo-2-(2-thienyl)acetamide]
≥ 80%: pest or weed control at 200 ppm (Phakopsora pachyrhizi) | pest or weed control at 200 ppm [1] | inhibition at 20 ppm [2] | pest or weed control at 200 ppm [3]

CC(C)(C)C(=O)C(=O)NCc1c(F)cc(-c2noc(C(F)(F)F)n2)cc1F [Compound 1.71, N-[[2,6-difluoro-4-[5-(trifluoromethyl)-1,2,4-oxadiazol-3-yl]phenyl]methyl]-3,3-dimethyl-2-oxo-butanamide]
≥ 80%: pest or weed control at 200 ppm (Phakopsora pachyrhizi) | pest or weed control at 200 ppm [1] | inhibition at 20 ppm [2] | pest or weed control at 200 ppm [3]

CON(Cc1ccc(-c2noc(C(F)(F)F)n2)cc1)C(=O)C(=O)CC(C)C [Compound 1.72, N-methoxy-4-methyl-2-oxo-N-[[4-[5-(trifluoromethyl)-1,2,4-oxadiazol-3-yl]phenyl]methyl]pentanamide]
≥ 80%: pest or weed control at 200 ppm (Phakopsora pachyrhizi) | pest or weed control at 200 ppm [1] | inhibition at 20 ppm [2] | pest or weed control at 200 ppm [3]

CON(Cc1ccc(-c2noc(C(F)(F)F)n2)cc1)C(=O)C(=O)C(C)(C)C [Compound 1.74, N-methoxy-3,3-dimethyl-2-oxo-N-[[4-[5-(trifluoromethyl)-1,2,4-oxadiazol-3-yl]phenyl]methyl]butanamide]
≥ 80%: pest or weed control at 200 ppm (Phakopsora pachyrhizi) | pest or weed control at 200 ppm [1] | inhibition at 20 ppm [2] | pest or weed control at 200 ppm [3]

O=C(NCc1ccc(-c2noc(C(F)(F)F)n2)cc1)C(=O)c1ccccc1 [Compound 1.75, 2-oxo-2-phenyl-N-[[4-[5-(trifluoromethyl)-1,2,4-oxadiazol-3-yl]phenyl]methyl]acetamide]
≥ 80%: pest or weed control at 200 ppm (Phakopsora pachyrhizi) | pest or weed control at 200 ppm [1] | inhibition at 20 ppm [2] | pest or weed control at 200 ppm [3]
